Data set [1] has as its system Haemophilus influenzae (Isolate ID ATCC 49247). Nature of the data set: Antibacterial activity, MIC, H. influenzae. Format: cell-based. The following applies: Haemophilus influenzae, ATCC49247; Gram negative strain; broth microdilution or agar dilution. The protocol: (§1) Bacterial Assay: Determination of Antibacterial Activity
(§2) Compounds of the invention were tested for antimicrobial activity by susceptibility testing in liquid or on solid media. MICs for compounds against each strain were determined by the broth microdilution or agar dilution method according to the guidelines of the Clinical Laboratories and Standards Institute, formerly the National Committee for Clinical Laboratory Standards (Clinical Laboratories and Standards Institute. Methods for Dilution Antimicrobial Susceptibility Tests for Bacteria That Grow Aerobically; Approved Standard—Seventh Edition. Document M7-A7. CLSI, Wayne, Pa., 2006; Clinical Laboratories and Standards Institute. The gram positive bacterial strains tested include S. aureus (Staphylococcus aureus (Isolate ID ATCC 29213)), E. faecalis (Enterococcus faecalis (Isolate ID ATCC 29212)) and S. pyogenes (Streptococcus pyogenes (Isolate ID ATCC 51339)). The gram negative bacterial strains tested include H. influenzae (Haemophilus influenzae (Isolate ID ATCC 49247))

The next data set can be described thus: physchem. Particulars: kinetic from dmso stock. On the procedure: Turbimetric Assay: Determination of Solubility
The solubility of the compounds was measured using a turbidimetric method. A series of doubling dilutions of compounds were prepared in neat dimethyl sulfoxide (DMSO). 5 μl samples were diluted twenty-fold into 95 μl volumes of 100 mM citrate buffer (pH 4), phosphate buffered saline (PBS, pH 7.4) or carbonate-bicarbonate buffer (pH 9) in microtitre assay plates and allowed to reach equilibrium at room temperature for 24 hours. The absorbance within each well of the plate was read spectrophotometrically at a wavelength of 620 nm. A precipitate forms when the maximum aqueous solubility level is reached. The value quoted is the highest concentration where the compound was in solution i.e. where no measurable precipitate was present. […] ND=not determined

The test system of data set [2] is Staphylococcus aureus (Isolate ID ATCC 29213). The experiment in a line: Antibacterial activity, MIC, S. aureus. The following applies: Staphylococcus aureus, ATCC29213, Gram positive strain; broth microdilution or agar dilution. Format: cell-based. On the procedure: as §1, §2
The test system of data set [3] is Streptococcus pyogenes (Isolate ID ATCC 51339). The experiment in a line: Antibacterial activity, MIC, S. pyogenes. Format: cell-based. The following applies: Streptococcus pyogenes, ATCC51339, Gram positive strain; broth microdilution or agar dilution. On the procedure: as §1, §2
In general terms: Broth dilution looks for growth in wells or tubes with falling amounts of substance.

Setting [4] is: pH 7.4, aqueous buffer, Solubility (pH 7.4).
Setting [5] is: pH 7.4, aqueous buffer, Solubility Range.
Setting [6] is: pH 9, aqueous buffer, Max Solubility.
The mark [7] stands for this setting: pH 9, aqueous buffer, Solubility Range (maximum solubility).
Setting [8] is: pH 7.4, aqueous buffer, Max Solubility.
Setting [9] is: pH 7.4, aqueous buffer, Solubility Range (maximum solubility).

Values after ≈ are worked out from the molar mass of the structure shown.

As a reminder, the solubility is the concentration that dissolves in the medium under given conditions. A lower solubility goes with little dissolved substance.

Consider `CCNC(=O)Nc1nc2cc(-c3ccnc(N4CCC(C)(C(=O)O)CC4)c3)cc(-c3ccccn3)c2s1` [Compound 182], for which the MIC in data set [1] is above 16 µg/mL; in data set [2], 1 to 16 µg/mL (≈ 1.94 to 31 µM); in data set [3] it was at most 0.25 µg/mL. In addition, the solubility at 24 h in the data set “physchem” (setting [4]) was 200 µg/mL (≈ 387 µM); in the data set “physchem” (setting [5]), 12.5 to 400 µg/mL (≈ 24.2 to 774 µM); in the data set “physchem” (setting [6]) it was at least 800 µg/mL; in the data set “physchem” (setting [7]) it was above 800 µg/mL.
On to `CCNC(=O)Nc1nc2cc(-c3cnc(N4CCC(C)(C(=O)NS(C)(=O)=O)CC4)nc3)cc(-c3ccccn3)c2s1` [Compound 186], for which the MIC in data set [1] is 1 to 16 µg/mL (≈ 1.68 to 26.9 µM); in data set [2] it was 1 to 16 µg/mL (≈ 1.68 to 26.9 µM); in data set [3] it was at most 0.25 µg/mL. In addition, the solubility at 24 h is at least 800 µg/mL in “physchem” (setting [8]), at least 800 µg/mL in “physchem” (setting [4]), above 800 µg/mL in “physchem” (setting [5]) and above 800 µg/mL in the data set “physchem” (setting [9]).
Consider `CCNC(=O)Nc1nc2cc(-c3cnc(N4CCC(C)(C(=O)O)CC4)nc3)cc(/C(C)=N/OCCO)c2s1` [Compound 187], for which the results for the MIC in data set [1], in data set [2] and in data set [3] were 1 to 16 µg/mL (≈ 1.85 to 29.5 µM), 1 to 16 µg/mL (≈ 1.85 to 29.5 µM) and 0.25 to 1 µg/mL (≈ 0.462 to 1.85 µM), respectively. The solubility at 24 h in “physchem” (setting [4]) was at least 800 µg/mL; in the data set “physchem” (setting [5]), above 800 µg/mL; in the data set “physchem” (setting [6]), at least 800 µg/mL; in “physchem” (setting [7]) it was above 800 µg/mL.
For `CCNC(=O)Nc1nc2cc(-c3cnc(N4CCC(C)(C(=O)O)CC4)nc3)cc(/C(C)=N/OCCOC)c2s1` [Compound 188], the MIC was above 16 µg/mL in data set [1], 1 to 16 µg/mL (≈ 1.8 to 28.8 µM) in data set [2] and 1 to 16 µg/mL (≈ 1.8 to 28.8 µM) in data set [3]. Further, the solubility at 24 h in “physchem” (setting [8]) was at least 800 µg/mL; in the data set “physchem” (setting [4]) it was at least 800 µg/mL; in “physchem” (setting [5]) it was above 800 µg/mL; in the data set “physchem” (setting [9]), above 800 µg/mL.
`CCNC(=O)Nc1nc2cc(-c3cnc4c(c3)OC(C)(C(=O)O)C(=O)N4)cc(-c3ccccn3)c2s1` (centres unmarked) [Compound 190, 7-[2-(ethylcarbamoylamino)-7-(2-pyridyl)-1,3-benzothiazol-5-yl]-2-methyl-3-oxo-4H-pyrido[3,2-b][1,4]oxazine-2-carboxylic acid]: the MIC in data set [1] is above 16 µg/mL; in data set [2], 0.25 to 1 µg/mL (≈ 0.496 to 1.98 µM); in data set [3], 0.25 to 1 µg/mL (≈ 0.496 to 1.98 µM). In addition, the solubility at 24 h was 400 µg/mL (≈ 793 µM) in “physchem” (setting [8]), 400 µg/mL (≈ 793 µM) in “physchem” (setting [4]), 400 to 800 µg/mL (≈ 793 to 1590 µM) in “physchem” (setting [5]) and 400 to 800 µg/mL (≈ 793 to 1590 µM) in “physchem” (setting [9]).
As for `CCNC(=O)Nc1nc2cc(-c3cnc(N4CCC(C)(C(=O)OCC)CC4)nc3)c(OC)cc2s1` [Compound 191, Ethyl 1-[5-[2-(ethylcarbamoylamino)-6-methoxy-1,3-benzothiazol-5-yl]pyrimidin-2-yl]-4-methyl-piperidine-4-carboxylate], the MIC in data set [1], in data set [2] and in data set [3] was 1 to 16 µg/mL (≈ 2.01 to 32.1 µM) each time. Further, the solubility at 24 h in the data set “physchem” (setting [8]) is 6.25 µg/mL (≈ 12.5 µM); in “physchem” (setting [4]) it was 6.25 µg/mL (≈ 12.5 µM); in the data set “physchem” (setting [5]), below 12.5 µg/mL; in the data set “physchem” (setting [9]), below 12.5 µg/mL.
In the case of `CCNC(=O)Nc1nc2cc(-c3cnc(C(=O)N4CCC(C)(C(=O)O)CC4)nc3)cc(-c3ccccn3)c2s1` [Compound 192], the MIC in data set [1], in data set [2] and in data set [3] was 1 to 16 µg/mL (≈ 1.83 to 29.3 µM) throughout. In addition, the solubility at 24 h in the data set “physchem” (setting [8]) was at least 800 µg/mL; in the data set “physchem” (setting [4]), at least 800 µg/mL; in the data set “physchem” (setting [5]), above 800 µg/mL; in “physchem” (setting [9]), above 800 µg/mL.
As to `CCNC(=O)Nc1nc2cc(-c3cnc(N4CCC(CC)(C(=O)O)CC4)nc3)cc(C(N)=O)c2s1` [Compound 193, 1-[5-[7-carbamoyl-2-(ethylcarbamoylamino)-1,3-benzothiazol-5-yl]pyrimidin-2-yl]-4-ethyl-piperidine-4-carboxylic acid], the MIC in data set [1], in data set [2] and in data set [3] was 1 to 16 µg/mL (≈ 2.01 to 32.2 µM) throughout. Besides, the solubility at 24 h was at least 800 µg/mL in the data set “physchem” (setting [8]), at least 800 µg/mL in “physchem” (setting [4]), above 800 µg/mL in “physchem” (setting [5]) and above 800 µg/mL in the data set “physchem” (setting [9]).
